The results in this text go back to patent publication US10787432B2, “N-[(pyridyloxy)propanyl]benzamides” (Boehringer Ingelheim International GmbH, priority 2016, dated 2020).

Structures are written as SMILES. Read-outs that look alike come from different tables or passages of the source.

One data set addresses T1, human Orexin 1 receptor (Homo sapiens, UniProt O43613).
T1 construct: stably expressing the full-length human Orexin 1 receptor; expressed in transfected cells; host or cells: CHO-K1 (CHO-K1/hOX1), co-expressing aequorin
T1 sequence (O43613 1-425): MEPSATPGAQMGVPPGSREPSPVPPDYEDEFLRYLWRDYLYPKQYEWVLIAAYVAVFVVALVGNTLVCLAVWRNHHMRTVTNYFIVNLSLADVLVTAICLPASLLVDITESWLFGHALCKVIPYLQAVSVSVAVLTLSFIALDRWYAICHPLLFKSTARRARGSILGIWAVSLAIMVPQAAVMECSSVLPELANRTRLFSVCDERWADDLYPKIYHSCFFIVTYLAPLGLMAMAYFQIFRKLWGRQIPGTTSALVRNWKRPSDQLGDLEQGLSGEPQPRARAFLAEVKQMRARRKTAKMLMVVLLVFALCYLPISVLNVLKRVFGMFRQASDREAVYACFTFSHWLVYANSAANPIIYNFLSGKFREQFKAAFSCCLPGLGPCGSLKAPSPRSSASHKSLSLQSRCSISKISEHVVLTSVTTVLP
Nature of the data set: Assay A: In vitro testing of OX1R potency: OX1R IP1 (HTRF, CHO-K1/hOX1 cells, Orexin A as agonist). The data set is classed as cell-based. Conditions: for Kb: read-out: OX1R Kb (Orexin A concentration used). On the technique in general: In TR-FRET formats the signal depends on donor and acceptor labels being close together.

For the next data set, the target named is T2, human orexin 2 receptor (Homo sapiens, UniProt O43614).
T2 construct: stably expressing the full-length human orexin 2 receptor; expressed in transfected cells; host or cells: CHO-K1 (CHO-K1/hOX2), co-expressing aequorin
T2 sequence (O43614 1-444): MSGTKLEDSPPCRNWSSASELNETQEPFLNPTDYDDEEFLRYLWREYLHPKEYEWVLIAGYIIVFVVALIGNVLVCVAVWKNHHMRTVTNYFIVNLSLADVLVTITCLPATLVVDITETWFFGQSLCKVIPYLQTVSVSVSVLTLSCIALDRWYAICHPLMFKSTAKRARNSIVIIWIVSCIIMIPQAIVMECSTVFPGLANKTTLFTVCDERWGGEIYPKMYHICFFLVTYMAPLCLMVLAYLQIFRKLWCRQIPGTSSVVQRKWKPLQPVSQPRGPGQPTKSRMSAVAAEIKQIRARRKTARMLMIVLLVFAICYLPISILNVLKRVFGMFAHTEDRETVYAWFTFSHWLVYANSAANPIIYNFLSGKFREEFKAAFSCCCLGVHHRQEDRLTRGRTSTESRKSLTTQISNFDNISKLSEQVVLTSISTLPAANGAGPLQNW
As to the kind of experiment: Assay B: In vitro testing of OX2R potency: OX2R IP1 (HTRF, CHO-K1/hOX2 cells, Orexin A as agonist). The data set is classed as cell-based. The following applies: Orexin A 0.5 nM. The text has this: Activation of the orexin receptors expressed in cell lines results in an increase in intracellular IP3 concentration. IP1, a downstream metabolite of IP3, accumulates in cells following receptor activation and is stable in the presence of LiCl. Using Homogeneous Time-Resolved Fluorescence technology with Lumi4-Tb cryptate (commercially available from Cisbio Bioassay.) and a suitable fluorescence plate reader. […] Chem. Genomics 2009, 3, 22-32. This technique is used to characterize pharmacological modification of the orexin receptors.
B. In Vitro Testing of OX2R Potency: OX2R IP1
IP1 measurements are performed in CHO-K1 cells stably expressing the full-length human orexin 2 receptor and the aequorin photoprotein. Cells are cultivated in Ham's nutrient mixture F12 medium with 10% fetal calf serum, in a 37° C., 95% humidity and 5% CO2 incubator. The CHO-K1/hOX2 cell mass is expanded to larger cell numbers. The cells are obtained as frozen cells in cryo-vials and stored until use at −150° C. The viability of the cells after thawing is >90%. In preparation for the assay, 24 hours before the assay, the cells are thawed at 37° C. and immediately diluted with cell culture medium. After centrifugation, the cell pellet is resuspended in medium and then distributed into the assay plates with a density of 5000 cells/25 μL per well. The plates are incubated for one hour at room temperature to reduce edge effects before they are incubated for 24 hours at 37° C./5% CO2. Compounds are prepared by a 8-point serial dilution in DMSO and a final dilution step into assay buffer (HBSS with 20 mM HEPES, 0.1% BSA and 50 mM LiCl, pH 7.4) to ensure a final DMSO concentration of 1% in the assay.
On the day of the assay, cells in the plate are washed twice with 60 μL assay buffer (20 μL buffer remained in the wells after washing), followed by adding 5 μL per well of compounds diluted in assay buffer. After 15 minutes of incubation at room temperature 5 μL per well of Orexin A peptide (final concentration: 0.5 nM) dissolved in assay buffer is added to the assay plate. The assay plate is incubated for 60 minutes at 37° C. Then 5 μL per well of Anti-IP1-Cryptate Tb solution and 5 μL per well of IP1-d2 dilution are added to all well of the plate and the plate is incubated for a further 60 minutes light protected at room temperature. The emission at 615 nm and 665 nm (Excitation wavelength: 320 nm) are measured using an EnVision reader (PerkinElmer). The ratio between the emission at 665 nm and 615 is calculated by the reader.
8-point four parametric non-linear curve fitting and determination of IC50 values and Hill slopes is performed using a regular analysis software e.g. AssayExplorer (Accelrys). In order to establish an agonist concentration independent parameter, Kb values are calculated using the following equation: IC50/((2+(A/EC50)n)^1/n−1) (with A=concentration agonist, EC50=EC50 agonist, n=Hill slope agonist) (see P. Leff, I. G. Dougall, Trends Pharmacol. Sci. 1993, 14(4), 110-112).
Kb values from Assay A (OX1R) and Assay B (OX2R) can then provide a selectivity ratio which is independent of the agonist (Orexin A) concentration.

Data set [1] can be described thus: Assay C: Metabolic stability in human liver microsomes (Human MST). It is filed as in vitro ADME. Conditions: pooled human liver microsomes, pH 7.6; human liver microsomes 1 mg/mL, compound 1 μM, 37° C., NADPH; read-out: Human MST t1/2. The method, then:
C. Assessment of Metabolic Stability in Human Liver Microsomes (Human MST)
The metabolic stability of the compounds according to the invention may be investigated as follows:
The metabolic degradation of the test compound is assayed at 37° C. with pooled human liver microsomes. The final incubation volume of 100 μL per time point contains TRIS buffer pH 7.6 at room temperature (0.1 M), MgCl2 (5 mM), microsomal protein (1 mg/mL) and the test compound at a final concentration of 1 μM. Following a short pre-incubation period at 37° C., the reactions are initiated by addition of beta-nicotinamide adenine dinucleotide phosphate, reduced form (NADPH, 1 mM), and terminated by transferring an aliquot into solvent after different time points. After centrifugation (10000 g, 5 min), an aliquot of the supernatant is assayed by LC-MS/MS for the amount of parent compound. The half-life (t1/2) is determined by the slope of the semi-logarithmic plot of the concentration-time profile.

Take `CCN(C(=O)c1ccc(C)cc1-c1nnc(C)o1)[C@@H](C)COc1ccc(Cl)cn1` [Example 38]: on human Orexin 1 receptor (OX1R Kb at 0.5 nM Orexin A), the “OX2R Kb/OX1R Kb” value came out at 313. The Kb on human Orexin 1 receptor (Orexin A 0.5 nM) was 2.8 nM; on human orexin 2 receptor, 877 nM. Further, the half-life at 1 μM in data set [1] worked out at 11 min.
As for `CCN(C(=O)c1cccc(C)c1-c1nnc(C)o1)[C@@H](C)COc1ccc(Cl)cn1` [Example 39], the “OX2R Kb/OX1R Kb” value at human Orexin 1 receptor (OX1R Kb at 0.5 nM Orexin A) is on record as 93; on human Orexin 1 receptor (OX1R Kb at 50 nM Orexin A), 152. In addition, the values for the Kb on human Orexin 1 receptor (Orexin A 0.5 nM), at human Orexin 1 receptor (Orexin A 50 nM) and on human orexin 2 receptor were 0.88 nM, 0.54 nM and 82 nM, respectively. For the same compound, the half-life at 1 μM in data set [1] came to 23 min.
Take `CCN(C(=O)c1ccc(Cl)cc1-n1nccn1)[C@@H](C)COc1ccc(Cl)cn1` [Example 45]: the “OX2R Kb/OX1R Kb” value at human Orexin 1 receptor (OX1R Kb at 50 nM Orexin A) turned out to be 59. Also, the Kb on human Orexin 1 receptor (Orexin A 50 nM) was determined as 0.354 nM; at human orexin 2 receptor, 21 nM. Further, the half-life at 1 μM in data set [1] was determined as 18 min.
For `CCN(C(=O)c1ccccc1-n1nccn1)[C@@H](C)COc1ccc(Cl)cn1` [Example 46] the same measures were 56, 0.66 nM, 37 nM and 35 min.
Turning to `CCN(C(=O)c1ccccc1-n1nccn1)[C@@H](C)COc1ncc(C(F)(F)F)cc1F` [Example 47], the “OX2R Kb/OX1R Kb” value on human Orexin 1 receptor (OX1R Kb at 0.5 nM Orexin A) was determined as 130; on human Orexin 1 receptor (OX1R Kb at 50 nM Orexin A), 272. Besides, the Kb at human Orexin 1 receptor (Orexin A 0.5 nM) amounted to 0.67 nM; on human Orexin 1 receptor (Orexin A 50 nM), 0.32 nM; on human orexin 2 receptor it was 87 nM. In addition, in data set [1], the half-life at 1 μM worked out at 21 min.
Regarding `CCN(C(=O)c1ccc(F)cc1-n1nccn1)[C@@H](C)COc1ncc(C(F)(F)F)cc1F` [Example 48], the figures for the “OX2R Kb/OX1R Kb” value on human Orexin 1 receptor (OX1R Kb at 0.5 nM Orexin A) and on human Orexin 1 receptor (OX1R Kb at 50 nM Orexin A) were 156 and 220, respectively. Also, the values for the Kb on human Orexin 1 receptor (Orexin A 0.5 nM), at human Orexin 1 receptor (Orexin A 50 nM) and on human orexin 2 receptor were 1.31 nM, 0.93 nM and 205 nM, respectively. For the same compound, the half-life at 1 μM in data set [1] was found to be 31 min.
Turning to `CCN(C(=O)c1cccc(Cl)c1-n1nccn1)[C@@H](C)COc1ncc(C(F)(F)F)cc1F` [Example 49], at human Orexin 1 receptor (OX1R Kb at 50 nM Orexin A), the “OX2R Kb/OX1R Kb” value turned out to be 333. Further, the Kb on human Orexin 1 receptor (Orexin A 50 nM) worked out at 0.066 nM; at human orexin 2 receptor, 22 nM. Also, the half-life at 1 μM in data set [1] stood at 81 min.
In the same order, the values of `CCN(C(=O)c1ccc(F)c(F)c1-n1nccn1)[C@@H](C)COc1ncc(C(F)(F)F)cc1F` [Example 50] are 410, 0.69 nM, 283 nM and 46 min.
For the compound `CCN(C(=O)c1cc(F)ccc1-n1nccn1)[C@@H](C)COc1ncc(C(F)(F)F)cc1F` [Example 51], the “OX2R Kb/OX1R Kb” value at human Orexin 1 receptor (OX1R Kb at 0.5 nM Orexin A) was determined as 259; at human Orexin 1 receptor (OX1R Kb at 50 nM Orexin A), 430. Further, the Kb on human Orexin 1 receptor (Orexin A 0.5 nM) was found to be 0.73 nM; on human Orexin 1 receptor (Orexin A 50 nM), 0.44 nM; at human orexin 2 receptor, 189 nM. Besides, the half-life at 1 μM in data set [1] was 36 min.
